Experimental data published in PubChem BioAssay AID2060604 (Molecular Pharmacology Branch, DTP, NCI, 2025).

Test system: 379773-124-R-J2-PDC complex spheroids, viability % test/control
Experiment: Anticancer human tumor 379773-124-R-J2-PDC patient-derived endometrial carcinoma cell line growth inhibition [CLK]
Conditions: for IC50: curve of first compound; for viability, T/C: stronger effect = lower value; active = viability on the fitted dose curve at most 10% of control; inactive = the rest
From the text: A high-throughput screen of multi-cell type tumor spheroids was designed to identify active combinations of […] and targeted small molecules. Complex spheroids include a stromal component modeled by human endothelial cells (HUVEC) and fibroblasts modeled by human mesenchymal stem cells (MSCs). The concentration ranges selected for each drug and investigational agent were based upon clinically achievable concentrations if the clinical Cmax of the agent was known.
Compounds. The drugs and investigational agents: cirtuvivint (SM08502; NSC835563), CC-671 (NSC850746), vemurafenib (NSC761431), tapotoclax (NSC804041), sotorasib (NSC818433), adagrasib (NSC831453), MRTX-1133 (NSC836407), BAY2416964 (NSC825713), copanlisib (NSC816437), inavolisib (NSC800729), abemaciclib (NSC768073), osimertinib (NSC779217), entinostat (NSC756642), eltanexor (KPT-8602, NSC794443), venetoclax (NSC766270), ceralasertib (NSC777638), bortezomib (NSC756655), olaparib (NSC753686), talazoparib (NSC767125), alisertib (NSC759677), peposertib (NSC802822), gemcitabine (NSC613327), 5-fluorouracil (NSC19893), SN-38 (NSC673596), oxaliplatin (NSC266046), paclitaxel (NSC125973), and doxorubicin (NSC123127), were obtained from the National Cancer Institute (NCI) Developmental Therapeutics Program Chemical Repository. The FDA-approved anticancer drug set is available from the Developmental Therapeutics Program at https://dtp.cancer.gov/organization/dscb/obtaining/available plates.htm. […] The stock solutions were prepared in dimethyl sulfoxide (DMSO, Sigma-Aldrich, St. Louis, MO, cat. D2650), except for the platinum complexes which were prepared in saline (Quality Biological, Gaithersburg, MD, cat. 114-055-101), at 800-fold the tested concentration and stored at -70 degrees C prior to their use. All drugs and investigational agents were tested over a range starting from a high concentration at or near the clinical Cmax and decreasing in half-log increments. If the clinical Cmax for an agent had not been determined, the highest concentration tested was 10 microM.
Cell Culture. All cells were maintained in an incubator at 37 degrees C and 5% CO2 with 95% humidity. The PDC lines were cultured according to standard operating procedures established by the NCI PDMR. Briefly, all PDCs were thawed and cultured in Matrigel-coated flasks prepared with a working solution of 1X Ham's F-12 nutrient mix, without supplementation (Invitrogen, Waltham, MA, cat. 11765054), 100 U/mL penicillin-streptomycin (Invitrogen, cat. 15140122), and 2.5% Matrigel (Corning Inc., Corning, NY, cat. 354248) for the first three passages. The 947758-054-R-J2-PDC line was cultured in 6B/Colon 1A media, which includes advanced DMEM/F-12 (Thermo Fisher Scientific, cat. 12634028), 10 mM HEPES (Thermo Fisher Scientific, cat. 15630080), 1X GlutaMAX supplement (Thermo Fisher Scientific, cat. 35050061), 0.1 mg/mL primocin (InvivoGen, cat. ant-pm-2), 10% defined fetal bovine serum, heat inactivated (HyClone Laboratories Inc., cat. SH30070.03HI), 1.25 mM N-Acetyl-L-cysteine (Sigma-Aldrich, cat. A9165), 10 mM nicotinamide (Sigma-Aldrich, cat. N0636), 1X B-27 supplement (Thermo Fisher Scientific, cat. 17504044), 1X N-2 supplement (Thermo Fisher Scientific, cat. 17502048), and 10 microM Y-27632 dihydrochloride (Tocris Bioscience, cat. 1254). The 876862-298-R-J1-PDC was cultured in 6E media, which includes all 6B/Colon 1A media components plus 50% L-WRN conditioned media (ATCC, cat. CRL-3276), 50 ng/mL recombinant human EGF recombinant protein (hEGF; Thermo Fisher Scientific, cat. PHG0311), 10 ng/mL recombinant human fibroblast growth factor 10 (hGFG-10; PeproTech, cat. 100-26), 1 ng/mL recombinant human fibroblast growth factor 2 (hFGF-2; PeproTech, cat. 100-18B), and 1 µM prostaglandin E2 (PGE2; Tocris, cat. 2296). The 227483-062-R1-J1-PDC line was cultured in Panc media, containing all 6E components except hFGF-2, with the addition of 500 nM SB-431542 (Selleckchem, cat. S1067) and 10 nM gastrin (Tocris, cat. 3006). […]

[1] = second compound 0.0316 µM, first compound 0.0316 µM
[2] = second compound 0.0316 µM, first compound 0.1 µM
[3] = second compound 0.0316 µM, first compound 0.316 µM
[4] = second compound 0.0316 µM, first compound 1 µM
[5] = second compound 0.0316 µM, first compound 3.16 µM
[6] = second compound 0.0316 µM, first compound 10 µM
[7] = second compound 0.1 µM, first compound 0.0316 µM
[8] = second compound 0.1 µM, first compound 0.1 µM
[9] = second compound 0.1 µM, first compound 0.316 µM
[10] = second compound 0.1 µM, first compound 1 µM
[11] = second compound 0.1 µM, first compound 3.16 µM
[12] = second compound 0.1 µM, first compound 10 µM
[13] = second compound 0.316 µM, first compound 0.0316 µM
[14] = second compound 0.316 µM, first compound 0.1 µM
[15] = second compound 0.316 µM, first compound 0.316 µM
[16] = second compound 0.316 µM, first compound 1 µM
[17] = second compound 0.316 µM, first compound 3.16 µM
[18] = second compound 0.316 µM, first compound 10 µM
[19] = second compound 1 µM, first compound 0.0316 µM
[20] = second compound 1 µM, first compound 0.1 µM
[21] = second compound 1 µM, first compound 0.316 µM
[22] = second compound 1 µM, first compound 1 µM
[23] = second compound 1 µM, first compound 3.16 µM
[24] = second compound 1 µM, first compound 10 µM
[25] = second compound 3.16 µM, first compound 0.0316 µM
[26] = second compound 3.16 µM, first compound 0.1 µM
[27] = second compound 3.16 µM, first compound 0.316 µM
[28] = second compound 3.16 µM, first compound 1 µM
[29] = second compound 3.16 µM, first compound 3.16 µM
[30] = second compound 3.16 µM, first compound 10 µM
[31] = second compound 10 µM, first compound 0.0316 µM
[32] = second compound 10 µM, first compound 0.1 µM
[33] = second compound 10 µM, first compound 0.316 µM
[34] = second compound 10 µM, first compound 1 µM
[35] = second compound 10 µM, first compound 3.16 µM
[36] = second compound 10 µM, first compound 10 µM
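Note: compound exposure lasted seven days before the viability readout.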
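Throughout, for viability, T/C: 100% = DMSO vehicle control wells.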

CC1COCCN1c1cc(C2(S(C)(=N)=O)CC2)nc(-c2ccnc3[nH]ccc23)n1 (centres undefined) + CN1CCN(c2cc(C(=O)Nc3cc4cc(-c5cnn(C)c5)ccc4cn3)ccn2)CC1
2820 nM: IC50 (second compound 0.1 µM)
active: viability, T/C [18] 3.29% | viability, T/C [19] 0.11% | viability, T/C [20] 0.2% | viability, T/C [21] 0.96% | viability, T/C [22] 2.48% | viability, T/C [23] 0.1% | viability, T/C [24] 0.06% | viability, T/C [25] 1.57% | viability, T/C [26] 1.16% | viability, T/C [27] 0.14% | viability, T/C [28] 0.1% | viability, T/C [29] 0.12% | viability, T/C [30] 0.1% | viability, T/C [31] 0.14% | viability, T/C [32] 0.36% | viability, T/C [33] 1.74% | viability, T/C [34] 0.18% | viability, T/C [35] 3% | viability, T/C [36] 0.19%
< 31.6 nM: IC50 (second compound 0.316 µM) | IC50 (second compound 1 µM) | IC50 (second compound 3.16 µM) | IC50 (second compound 10 µM)
2500 nM: IC50 (second compound 0.0316 µM)
inactive: viability, T/C [1] 98.2% | viability, T/C [2] 95.1% | viability, T/C [3] 80.2% | viability, T/C [4] 74% | viability, T/C [5] 42.8% | viability, T/C [6] 17.2% | viability, T/C [7] 84.2% | viability, T/C [8] 75.7% | viability, T/C [9] 77.5% | viability, T/C [10] 64.9% | viability, T/C [11] 49.3% | viability, T/C [12] 12.5% | viability, T/C [13] 21.9% | viability, T/C [14] 26.2% | viability, T/C [15] 20.1% | viability, T/C [16] 15.6% | viability, T/C [17] 10.6%

CC(Nc1ccc2c(c1)OCCn1cc(N3C(=O)OCC3C(F)F)nc1-2)C(N)=O (centres undefined) + CN1CCN(c2cc(C(=O)Nc3cc4cc(-c5cnn(C)c5)ccc4cn3)ccn2)CC1
inactive: viability, T/C [1] 85.2% | viability, T/C [2] 89.8% | viability, T/C [3] 69.3% | viability, T/C [4] 89.3% | viability, T/C [5] 68.6% | viability, T/C [6] 62.5% | viability, T/C [7] 92.4% | viability, T/C [8] 81.8% | viability, T/C [9] 87.2% | viability, T/C [10] 68.9% | viability, T/C [11] 84.2% | viability, T/C [12] 46.2% | viability, T/C [13] 19.4% | viability, T/C [14] 22.5% | viability, T/C [15] 21.1% | viability, T/C [16] 18.9% | viability, T/C [17] 22.9% | viability, T/C [18] 11.4%
8870 nM: IC50 (second compound 0.1 µM)
< 31.6 nM: IC50 (second compound 0.316 µM) | IC50 (second compound 1 µM) | IC50 (second compound 3.16 µM) | IC50 (second compound 10 µM)
> 10000 nM: IC50 (second compound 0.0316 µM)
active: viability, T/C [19] 0.15% | viability, T/C [20] 0.14% | viability, T/C [21] 0.75% | viability, T/C [22] 0.56% | viability, T/C [23] 0.08% | viability, T/C [24] 0.1% | viability, T/C [25] 0.84% | viability, T/C [26] 0.13% | viability, T/C [27] 0.14% | viability, T/C [28] 0.52% | viability, T/C [29] 0.43% | viability, T/C [30] 0.48% | viability, T/C [31] 0.1% | viability, T/C [32] 0.12% | viability, T/C [33] 0.71% | viability, T/C [34] 1.07% | viability, T/C [35] 0.4% | viability, T/C [36] 0.19%
